Laboratory results published in patent publication US20230219898A1, “COMPOUNDS AND METHODS FOR BLOCKING APOPTOSIS AND INDUCING AUTOPHAGY” (President and Fellows of Harvard College, priority 2020, published 2023).
pIC50, pKd: −log10 of the molar value.

Experiments:
[1] = biological target: T1, TRADD-N (Homo sapiens, UniProt Q15628); test: BIAcore SPR binding to TRADD-N; conditions: 25C, steady-state affinity
T1 construct: expression constructs encoding Flag-TRADD-N(1-179) and HA-TRADD-C(180-312); His (N); made in house
T1 sequence (Q15628 1-179): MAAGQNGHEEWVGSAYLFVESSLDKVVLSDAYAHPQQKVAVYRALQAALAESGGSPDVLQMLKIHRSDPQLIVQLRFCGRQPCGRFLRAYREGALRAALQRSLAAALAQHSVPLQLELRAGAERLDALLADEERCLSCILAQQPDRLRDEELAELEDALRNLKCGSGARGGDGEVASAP
Procedure: A series of concentrations of ICCB-19 (ranging from 0.3125 to 10 μM) was used to measure the binding kinetics, with TRADD-N immobilized on the CM5 chip.
The binding affinity between ICCB-19/Apt-1 and TRADD-N was analyzed at 25C on a BIAcore T200 machine with CM5 chips (GE Healthcare). PBS-P buffer (GE Healthcare) was used for all measurements. For surface plasmon resonance (SPR) measurements, Flag-tagged TRADD-N protein was purified from HEK293T cells by anti-Flag affinity gel and eluted by 3×Flag peptide. The protein was further purified by size exclusion chromatograph on a Superdex 75 column (GE Healthcare) in a buffer containing 20 mM imidazole (pH 6.6), 200 mM NaCl, 20 mM DTT. The protein was dialyzed into PBS and diluted to a final concentration of 40 μg/ml in NaOAc buffer (pH 4.5) before immobilization on CM5 chip. ˜5000 response units of protein were immobilized on the chip with a running buffer composed of PBS-P. Reference was used to normalize the response unit (RU) values of protein. A series of compound concentrations ranging from 0.3125 to 10 μM was tested at […] flow rate. The contact time is 100 s and dissociation time is 120 s. When the data collection was finished in each cycle, the sensor surface was regenerated with PBS-P buffer. DMSO solvent correction was performed following the BIAcore T200 Guide.

[2] = test system: H4-GFP-LC3 cells; test: Autophagy induction, GFP-LC3 puncta and LC3II immunoblotting; assay type: cell-based; conditions: 10 μM, 6 h (zVAD.fmk 20 μM)
Procedure: Mean ±s.e.m. (n=5). One-way ANOVA, post hoc Dunnett's test.
Autophagy was determined by LC3II levels using immunoblotting. SE=shorter exposure, LE=longer exposure.
Autophagy was measured by LC3II induction and p62 reduction by immunoblotting. The levels of LC3II in cells treated with both Apt-1 and NH4Cl, the latter of which inhibits lysosome, were higher than that treated with either Apt-1 or NH4Cl alone. Thus, ICCB-19/Apt-1, but not ICCB-19i, induce autophagic flux. Mean ±s.e.m. from technical triplicates (n=3), representative of 3 independent experiments. Two-tailed t-test. **P=0.0037.
Levels of LC3II determined by immunoblotting.
Cells were seeded at 2.5×10^4 cells per well on poly-L-lysine coated glass cover slips and transfected as described. Cells were fixed in 4% paraformaldehyde, followed by permeabilization with 0.1% Triton X-100. Nuclei were stained using DAPI (Sigma). Cells expressing GFP or RFP-fusion proteins were imaged with an Olympus Fluoview FV1000 confocal microscope (Olympus) using a 40×objective. For GFP-LC3 and DsRed-FYVE puncta quantification, the average spot intensity in 1000 cells from each indicated sample was determined. Images were processed using ImageJ and Photoshop CC. Concentration of compounds used to induce or block autophagy: 10 μM (Apt-1, ICCB-19, ICCB-19i or Spautin-1), for 6 h or as indicated.

[3] = test system: Htt-103Q, α-synuclein and tau expressing cells; test: Misfolded protein accumulation and cell death in cell models (Htt-103Q, α-synuclein, tau); assay type: cell-based; conditions: 10 μM
Procedure: Nuclei were labeled with DAPI. The amount of Htt-Q103-EGFP aggregates per mm^2 was quantified using ImageJ. Scale bar is 100 μm. Cell viability was measured by CellTiter-Glo assay. Survival rate is compared with vehicle-treated cells. Mean ±s.d. from technical triplicates (n=3), representative of 3 independent experiments. One-way ANOVA, post hoc Dunnett's tests. ***P<0.001; n.s. not significant, (P=0.8556, 0.9195, 0.8613, 0.5687, 0.5304, 0.9998, 0.6029, 0.2821 (left to right)).
RFP-α-Synuclein was quantified by Fluorescence/Cell (RLU) by ImageJ.
Mean ±s.d. from technical triplicates (n=3), representative of 3 independent experiments. Two-way ANOVA, post hoc Bonferroni's tests. ***P<0.001; *P=0.0262, 0.0367 (left to right).
Mean ±s.d. from technical triplicates (n=3), representative of 3 independent experiments. Two-way ANOVA, post hoc Bonferroni's tests.

[4] = test system: MEFs; test: RDA in MEFs induced by mTNFα and 5Z-7-Oxozeaenol, cell survival; assay type: cell-based, mouse; conditions: for protection against RDA models: 10 μM; for pIC50: Mus musculus, FIG. 5c, mTNFα 1 ng/mL, 5Z-7-Oxozeaenol 0.5 μM, 8 h, read-out: IC50 of inhibition of RDA
Procedure: The rates of cell death were measured in triplicate or quadruplicate in a 96-well or 384-well plate by using SYTOX Green Nucleic Acid Stain (Invitrogen) or ToxiLight Non-destructive Cytotoxicity BioAssay Kit (Lonza). The intensity of luminescence was determined in an EnSpire Multimode Plate Reader (PerkinElmer). Cytotoxicity is expressed as percentages of cell death per well after deducting the background signal in non-induced cells and compared to that of the maximal cell death with 100% Lysis Reagent. The rates of cell viability were determined by using CellTiter-Glo Luminescent Cell Viability Assay (Promega) following the manufacturer's protocol and the results are expressed as percentages of luminescence intensity per well after deducting the background signal in blank well and compared to that of the viability in the non-treated wells. Concentration of drugs used for inducing or inhibiting cell death, mTNFα: 1 ng/ml; 5Z-7-Oxozeaenol: 0.5 μM; Velcade: 50 nM; Apt-1/ICCB-19/ICCB-19i/Nec-1s: 10 μM.

Row | Structure (SMILES) | pKd [1] | induction of autophagy [2] | protein accumulation and cell death with Htt-103Q, α-synuclein, tau [3] | protection against RDA models [4] | pIC50 [4]
1 | O=C(CSC1=NCCN1)NC1CCCCCC1 [ICCB-19] | 5.64 | effectively induced autophagy | reduced protein accumulation and cell death | protected against multiple RDA models | ~6.00
2 | CN1CCN=C1SC(C(=O)NC1CCCCCC1)c1ccccc1 (stereo not shown) [Compound 30] | 5.66 | effectively induced autophagy | reduced protein accumulation and cell death | protected against multiple RDA models | ~6.00
